From patent US12138240B2, “Treatment of cardiac dysfunction” (priority 2017, dated 2024)
Like-named read-outs stand apart in the source and are kept apart here.

How the values were obtained:
male healthy subjects = assay: linear exposure-QTcF model (NONMEM); set-up: species or system human; conditions: QTcFij=407+0.196*Parent−0.643*Metabolite−0.143*Time
Description: Data analysis proceeded from data structure analysis in S-PLUS to linear/nonlinear mixed effects modeling in NONMEM to develop the exposure-QTc relationship for ANAVEX 2-73 and its active metabolite ANAVEX 19-144. The correction method used for QT interval was the Fridericia's correction. The bootstrap was used to determine the reliability/stability of the exposure-QTc models developed. This was necessary to determine if the modeling results obtained with data from the 17 subjects would be applicable to the population at large, given the sample size. […]
The approach used in characterizing exposure-QTc relationship was as follows: • 1) Concentration and QTc versus time plots were examined for any apparent trends or associations. • 2) Subject- and dose-specific QTc vs concentration plots were also examined for association as well as for the presence of any hysteresis indicative of temporal dissociations, i.e., indirect effects. • 3) All of the QTc measurements were plotted against the paired concentration measurements. […] Additionally, models incorporating cooperativity of drug action such as competitive antagonism between ANAVEX 2-73 and ANAVEX 19-144 concentrations and QTc effect were evaluated, as warranted, using nonlinear mixed effects modeling. […]

[1] = system: human subjects with sustained atrial fibrillation (AF); assay: treatment of atrial fibrillation with A2-73 (Examples 1 and 4); type: in vivo; conditions: for AF recurrence: 30 day follow-up; for serious adverse events: to end of 30 day follow-up
Protocol: The safety, tolerability, and short term efficacy of […] A subject with symptomatic AF (72 hr duration) receives 30 mg of A2-73 orally every day. Dosing is initiated in hospital and continues in weekly follow-up visits. Efficacy is assessed as absence of AF recurrence on weekly 12-lead ECG and daily transtelephonic monitoring during the study. The safety, tolerability, and short term efficacy of […] A subject with symptomatic AF (72 hr duration) is administered intravenously 30 mg of A2-73 every day. Dosing is initiated in hospital and continues in weekly follow-up visits. Efficacy is assessed as absence of AF recurrence on weekly 12-lead ECG and daily transtelephonic monitoring during the study.

[2] = system: human subjects with sustained atrial flutter; assay: treatment of atrial flutter with A2-73 (Example 2); type: in vivo; conditions: Example 2: 60 mg orally daily
Protocol: The safety, tolerability, and short term efficacy of […] 2-73 in human subjects with sustained atrial flutter as follows. A subject with atrial flutter (72 hr duration) receives 60 mg of A2-73 orally daily. Dosing is initiated in hospital and continues in weekly follow-up visits. Efficacy is assessed as absence of atrial flutter recurrence on weekly 12-lead ECG and daily transtelephonic monitoring during the study.

[3] = phase 2a studies, highest observed Cmax and extrapolation to 200 mg dose; conditions: human, in vivo, footnote b, Alzheimer's disease patients, paired with ANAVEX 2-73 value, read-out: ANAVEX 19-144 Concentration, highest observed Cmax in phase 2a studies
Protocol: Estimates are employed to apply the Exposure-QTcF relationship using observed and unlikely to be observed concentrations of the parent drug and metabolite QTc intervals are predicted, given the parameter estimates obtained with the exposure-QTcF model developed. […] The predicted QTcF for that subject is 410.67 ms, given the corresponding concentration of ANAVEX 19-144 being 38.3 ng/mL (Table 3). Thus, the QT corrected interval upon treatment with ANAVEX 2-73 is predicted to be below 420 ms.
Observed and unlikely to be observed concentrations of the parent drug and metabolite are used to predict heart rate, given the parameter estimates obtained with the exposure-heart rate model developed. […] Thus, the heart rate upon treatment with ANAVEX 2-73 is predicted to be below 75 beats/min.

[4] = system: human subjects with sustained ventricular fibrillation; assay: treatment of ventricular fibrillation with A19-144 (Example 3); type: in vivo; conditions: Example 3: 40 mg orally daily in two 20 mg doses
Protocol: The safety, tolerability, and short term efficacy of […] A subject with symptomatic ventricular fibrillation (72 hr duration) receives 40 mg of A19-144 orally daily in two 20 mg doses. Dosing is initiated in hospital and continues in weekly follow-up visits. Efficacy is assessed as absence of ventricular fibrillation recurrence on weekly 12-lead ECG and daily transtelephonic monitoring during the study.

[5] = system: muscarinic acetylcholine receptors; conditions: stated as 'is believed to bind'; cited from earlier work
sigma-1 receptors = sigma-1 receptors (Homo sapiens, UniProt Q99720); conditions: stated as 'is believed to bind'; cited from earlier work
[6] = Example 1: 30 mg orally every day
[7] = Example 4: 30 mg intravenously every day

sigma-1 receptors, sequence (Q99720 whole entry): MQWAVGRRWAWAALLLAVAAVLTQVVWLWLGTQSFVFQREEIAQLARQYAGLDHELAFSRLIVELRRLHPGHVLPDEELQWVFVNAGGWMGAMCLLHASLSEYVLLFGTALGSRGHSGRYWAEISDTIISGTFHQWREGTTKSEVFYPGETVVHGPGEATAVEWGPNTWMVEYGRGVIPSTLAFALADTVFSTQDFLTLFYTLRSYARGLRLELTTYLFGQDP

Row | SMILES | slope on Parent in final exposure-QTcF model (male healthy subjects) | time to cessation of AF [1, 6] [h] | AF recurrence [1, 6] | serious adverse events [1, 6] | time to cessation of AF [1, 7] [h] | AF recurrence [1, 7] | serious adverse events [1, 7] | time to cessation of arrhythmia [2] [h] | recurrence ([2]; 30 day follow-up) | serious adverse events ([2]; to end of 30 day follow-up) | Cmax ([3]; 50 mg) [ng/mL] | Cmax [3] [ng/mL] | time to cessation of ventricular fibrillation [4] [h] | ventricular fibrillation recurrence ([4]; 30 day follow-up) | serious adverse events ([4]; to end of 30 day follow-up) | affinity for muscarinic acetylcholine receptors [5] | affinity for sigma-1 receptors (sigma-1 receptors)
1 | CN(C)CC1CCOC1(c1ccccc1)c1ccccc1.Cl (centres unmarked) [ANAVEX 2-73, 1-(2,2-diphenyltetrahydrofuran-3-yl)-N,N-dimethylmethanamine hydrochloride] | 0.196 | ≤ 12 | does not recur | no serious adverse events occur | ≤ 12 | does not recur | no serious adverse events occur | ≤ 12 | does not recur | no serious adverse events occur |  |  |  |  |  |  | 
2 | CNCC1CCOC1(c1ccccc1)c1ccccc1.Cl (centres unmarked) [ANAVEX 19-144, 1-(2,2-diphenyltetrahydrofuran-3-yl)-N-methylmethanamine hydrochloride] |  |  |  |  |  |  |  |  |  |  | 11.1 | 23.1 | ≤ 12 | does not recur | no serious adverse events occur | low micromolar range | low micromolar range
